Laboratory results from ChEMBL document CHEMBL4325849, “Identification of potential antivirulence agents by substitution-oriented screening for inhibitors of Streptococcus pyogenes sortase A” (Eur J Med Chem, 2019).
Active and inactive are the calls of the source. The calls are words filed in the database; no cut-off is given here.

Tested on: Streptococcus pyogenes
Assay: Inhibition of Streptococcus pyogenes SrtA deltaN81 mutant expressed in Escherichia coli BL21(DE3) at 100 uM using Abz-LPETA-Dap(Dnp) as substrate preincubated for 10 mins followed by substrate addition measured every min for 2.5 hrs by fluorimetric assay relative to control

Structure (SMILES)	inhibition [%]
NNC(=O)c1ccnc(C(=O)NN)c1	3
CC(C)NCC(O)COc1cccc2ccccc12 (stereo not drawn)	-4.2
CCC(=O)N1CCN(c2ncccn2)CC1	11.6
Nc1[nH]c2cc(Cl)ccc2c1C(=O)N1CCOCC1	91.6
CCOC(=O)c1[nH]c2cc(Cl)ccc2c1C(=O)O	26.3
CCCN1CCOC2c3c(ccc4[nH]ccc34)OCC21 (stereo not drawn)	13.4
O=Cc1ccc2[nH]ccc2c1	11.3
COC(=O)c1cc2ccccc2[nH]1	5.1
Nc1ncncc1C=O	20.7
O=C(O)CCC(=O)c1cccs1	9.8
Cn1c(=O)c2[nH]cnc2n(C)c1=O	2.3
O=C(O)c1cc2ccccc2s1	4.5
O=C(O)CCC(=O)c1ccc2ccccc2c1	86.6
O=C(O)Cc1c[nH]cn1	-7.6
O=C(O)CCC(=O)c1c(C(=O)O)[nH]c2cc(Cl)ccc12	15.1
CCOC(=O)NCCc1c[nH]c2ccc(OC)cc12	11.7
O=C(O)c1cccs1	1.4
O=C(O)c1cc2cc(Cl)ccc2[nH]1	9.1
Nc1[nH]c2ccccc2c1C(=O)NCCc1ccc(Cl)cc1Cl	54.8
Nc1[nH]c2cc(Cl)ccc2c1C(=O)NCCc1ccc(Cl)cc1	91.9
Nc1ncccn1	7.5
COc1ccc2[nH]cc(CCNC(C)=O)c2c1	16
CCOC(=O)c1[nH]c2cc(Cl)ccc2c1N	12.8
COc1ccc2[nH]cc(CCN)c2c1	-1.9

Structure (SMILES)	inhibition [%]
O=Cc1nc2ccc(Cl)cc2[nH]1	19.9
COc1cccc2c3c(ccc12)NC(=O)CC3	54.2
Nc1[nH]c2ccccc2c1C(=O)NC1CC1	29.2
O=Cc1c[nH]c2cc(Cl)ccc12	6.4
Cc1ccc(S(=O)(=O)/N=C/c2cc3ccc(Cl)cc3[nH]2)cc1	8.8
COC(=O)c1cc2ccc(Cl)cc2[nH]1	28.2
Nc1c(C(=O)N2CCOCC2)cnn1Cc1ccccc1	1
COc1ccc(C(O)c2[nH]c3ccccc3c2CCN)cc1 (stereo not drawn)	60.8
c1ccc2c3c([nH]c2c1)CNCC3	10.1
Nc1nccc(O)n1	14.5
CCOC(=O)c1c(C=O)c(C)n(-c2ccccc2)c1C	2.9
CC(=O)NCCc1c[nH]c2ccc(O)cc12	10.8
NC(Cc1c[nH]c2ccccc12)C(=O)O (stereo not drawn)	5.5
Cn1c(C(=O)O)cc2ccccc21	8.2
NCCc1c[nH]c2ccccc12	-5.3
Nc1[nH]c2cc(C(F)(F)F)ccc2c1C(=O)NC1CCCCC1	-6.3
O=C(c1cccs1)N1CCN(c2ncccn2)CC1	10.2
COc1ccc(CCNC(=O)c2cnn(-c3ccccc3)c2N)cc1OC	4.6
CCOC(=O)c1cc(-c2ccccc2)c2cccc(O)c2c1	60.2
O=C(O)Cc1c[nH]c2ccccc12	8.6
CCOC(=O)c1[nH]c2cc(Cl)ccc2c1C=O	25.7
COC(=O)c1ccnc(C(=O)OC)c1	5.5
Nc1ncccc1CO	-0.5
CCC(=O)c1cccs1	0.1

Structure (SMILES)	inhibition [%]
O=C(O)c1[nH]c2cc(Cl)ccc2c1C(=O)Cc1ccc(Cl)cc1	28.3
Nc1ccc(S(=O)(=O)Nc2ccccn2)cc1	3.8
Oc1ccc2ncccc2c1	115
N#CCC(=O)c1c[nH]c2cc(F)ccc12	10.7
O=Cc1c[nH]c2ccccc12	1.5
CCOC(=O)c1[nH]c2cc(Cl)ccc2c1/C=N/c1ccccc1	3.7
O=C(O)c1cc2ccccc2[nH]1	4.5
CC(=O)NCCc1c[nH]cn1	3.8
O=c1c2cc3cc(Cl)ccc3nc2ncn1N1CCCCC1	42.2
O=Cc1ccc[nH]1	3.2
O=Cc1c[nH]c2ccc(Cl)cc12	12.3
Nc1c(C(=O)NCC(O)c2ccccc2)cnn1-c1ccccc1 (stereo not drawn)	35.4
Cn1c2c(c3ccccc31)C(=O)NCC2	20.5
O=c1cc[nH]c(=O)[nH]1	2.7
CC(C(=O)O)c1ccc2cc(OS(C)(=O)=O)ccc2c1 (stereo not drawn)	17
O=C(O)c1ccc2ccccc2n1	23.1
CCOC(=O)c1[nH]c2cc(Cl)ccc2c1C(=O)CCC(=O)OC	23.8
CCOC(=O)c1cc2ccccc2[nH]1	16.4
COc1cc(NS(=O)(=O)c2ccc(N)cc2)ncn1	12
O=[N+]([O-])c1cccc2[nH]ccc12	21.2
CCOC(=O)c1[nH]c2cc(Cl)ccc2c1C#Cc1ccccc1	118
CCOC(=O)c1cc2ccc(Cl)cc2[nH]1	15
O=C1CCN2c3ccccc3Sc3ccc(Cl)c1c32	11.1

Tested on: Streptococcus pyogenes
Assay: Inhibition of Streptococcus pyogenes SrtA deltaN81 mutant expressed in Escherichia coli BL21(DE3) at 10 uM using Abz-LPETA-Dap(Dnp) as substrate preincubated for 10 mins followed by substrate addition measured every min for 2.5 hrs by fluorimetric assay relative to control

Structure (SMILES)	inhibition [%]
Nc1[nH]c2cc(Cl)ccc2c1C(=O)N1CCOCC1	> 50
O=C(O)CCC(=O)c1ccc2ccccc2c1	> 50
Nc1[nH]c2ccccc2c1C(=O)NCCc1ccc(Cl)cc1Cl	> 50
Nc1[nH]c2cc(Cl)ccc2c1C(=O)NCCc1ccc(Cl)cc1	> 50
COc1cccc2c3c(ccc12)NC(=O)CC3	> 50
COc1ccc(C(O)c2[nH]c3ccccc3c2CCN)cc1 (stereo not drawn)	> 50
CCOC(=O)c1cc(-c2ccccc2)c2cccc(O)c2c1	> 50
CCOC(=O)c1[nH]c2cc(Cl)ccc2c1C#Cc1ccccc1	> 50

Tested on: not listed separately
Assay: Solubility of the compound
Assay type: physicochemical

Structure (SMILES)	solubility
Nc1[nH]c2cc(Cl)ccc2c1C(=O)N1CCOCC1	Soluble

Tested on: not listed separately
Assay: (§1) Inhibition of Streptococcus pyogenes SrtA deltaN81 mutant expressed in Escherichia coli BL21(DE3) using Abz-LPETA-Dap(Dnp) as substrate preincubated for 10 mins followed by substrate addition measured every min for 2.5 hrs by fluorimetric assay

Structure (SMILES)	IC50 [µM]
Nc1[nH]c2cc(Cl)ccc2c1C(=O)N1CCOCC1	10

Tested on: Streptococcus pyogenes
Assay: as §1

Structure (SMILES)	inhibition
Nc1[nH]c2ccccc2c1C(=O)N1CCOCC1	inactive
O=C(Nc1[nH]c2ccccc2c1C(=O)N1CCOCC1)c1ccccc1	inactive
Nc1[nH]c2ccccc2c1C(=O)N1CCCCC1	inactive

Tested on: Staphylococcus aureus
Assay: Inhibition of […] SrtA deltaN59 mutant expressed in Escherichia coli BL21(DE3) at 100 uM using Abz-LPETG-Dap(Dnp) as substrate preincubated for 10 mins followed by substrate addition measured every min for 2.5 hrs by fluorimetric assay

Structure (SMILES)	inhibition
Nc1[nH]c2cc(Cl)ccc2c1C(=O)N1CCOCC1	inactive

Tested on: Streptococcus pyogenes
Assay: Mixed-type inhibition of Streptococcus pyogenes SrtA deltaN81 mutant expressed in Escherichia coli BL21(DE3) at 5 to 10 uM using Abz-LPETA-Dap(Dnp) as substrate preincubated for 10 mins followed by substrate addition measured every min for 2 hrs by fluorimetric assay relative to control

Structure (SMILES)	inhibition
Nc1[nH]c2cc(Cl)ccc2c1C(=O)N1CCOCC1	Active

Tested on: not listed separately
Assay: Binding affinity to NT-647 labeled Streptococcus pyogenes His-tagged SrtA deltaN81 mutant expressed in Escherichia coli BL21(DE3) by microscale thermophoresis method

Structure (SMILES)	Kd [µM]
Nc1[nH]c2cc(Cl)ccc2c1C(=O)N1CCOCC1	60

Tested on: Streptococcus pyogenes
Assay: Induction of aggregation of NT-647 labeled Streptococcus pyogenes His-tagged SrtA deltaN81 mutant expressed in Escherichia coli BL21(DE3) by microscale thermophoresis method

Structure (SMILES)	Activity
Nc1[nH]c2cc(Cl)ccc2c1C(=O)N1CCOCC1	inactive
